# In patent publication US10030047B2 (Hoffmann-La Roche Inc., priority 2015, dated 2018):
# System: A. baumannii strain ATCC19606
# Assay: Minimum inhibitory concentration (MIC) determination, microbroth dilution (CLSI)
# Assay type: cell-based
# Settings: Acinetobacter baumannii; A. baumannii ATCC19606; CAMHB; read after 20 hours; >=80% growth inhibition; read-out: ATCC19606 MIC
# Procedure, shortened: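 After 20 h at 35±2 °C, MIC taken visually and by OD 600 nm as the lowest concentration giving ≥80% growth inhibition. Bacteria (~5×10^5 CFU/ml) were tested per CLSI microbroth dilution against twofold serial compound dilutions in cation-adjusted Mueller Hinton broth.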
row,MIC,SMILES
1,0.12 µg/mL,"Cc1[nH]c2ccccc2c1C[C@H]1C(=O)NCc2c(-c3ccncc3)ccc(Cl)c2Sc2ncccc2CN[C@@H](CCCN)C(=O)N[C@@H](CCCCN)C(=O)N1C [Example 202, (11S,14S,17S)-14-(4-Amino-butyl)-11-(3-amino-propyl)-25-chloro-16-methyl-17-(2-methyl-1H-indol-3-ylmethyl)-22-pyridin-4-yl-2-thia-4,10,13,16,19-pentaaza-tricyclo[19.4.0.0*3,8*]pentacosa-1(25),3(8),4,6,21,23-hexaene-12,15,18-trione]"
2,1 µg/mL,"Cc1[nH]c2ccccc2c1C[C@H]1C(=O)NCc2cc(-c3ccnc(N4CCN(C)CC4)c3)cc(Cl)c2Sc2ncccc2CN[C@@H](CCCN)C(=O)N[C@@H](CCCCN)C(=O)N1C [Example 203, (7S,10S,13S)— 10-(4-aminobutyl)-7-(3-aminopropyl)-20-chloro-6,7,9,10,12,13,15,16-octahydro-12-methyl-13-[(2-methyl-1H-indol-3-yl)methyl]-18-[2-(4-methyl-1-piperazinyl)-4-pyridinyl]pyrido[2,3-b][1,5,8,11,14]benzothiatetraazacycloheptadecine-8,11,14(5H)-trione]"
3,64 µg/mL,"CN1C(=O)[C@H](CCCCN)NC(=O)[C@H](CCCN)NCc2cccnc2Sc2cnc(N3CCOCC3)cc2CNC(=O)[C@@H]1Cc1c[nH]c2ccccc12 [Example 204, (7S,10S,13S)-13-((1H-Indol-3-yl)methyl)-10-(4-aminobutyl)-7-(3-aminopropyl)-12-methyl-18-morpholino-6,7,9,10,12,13,15,16-octahydrodipyrido[2,3-b:4′,3′-p][1,5,8,11,14]thiatetraazacycloheptadecine-8,11,14(5H)-trione]"
4,16 µg/mL,"COc1cc(-c2cc3c(cn2)Sc2ncccc2CN[C@@H](CCCN)C(=O)N[C@@H](CCCCN)C(=O)N(C)[C@@H](Cc2c[nH]c4ccccc24)C(=O)NC3)ccn1 [Example 205, (7S,10S,13S)-13-((1H-Indol-3-yl)methyl)-10-(4-aminobutyl)-7-(3-aminopropyl)-18-(2-methoxypyridin-4-yl)-12-methyl-6,7,9,10,12,13,15,16-octahydrodipyrido[2,3-b:4′,3′-p][1,5,8,11,14]thiatetraazacycloheptadecine-8,11,14(5H)-trione]"
5,0.25 µg/mL,"CN1C(=O)[C@H](CCCCN)NC(=O)[C@H](CCCN)NCc2cccnc2Sc2c(Cl)cc(-c3cc(F)nc(F)c3)cc2CNC(=O)[C@@H]1Cc1c[nH]c2ccccc12 [Example 209, (11S,14S,17S)-14-(4-Amino-butyl)-11-(3-amino-propyl)-25-chloro-23-(2,6-difluoro-pyridin-4-yl)-17-(1H-indol-3-ylmethyl)-16-methyl-2-thia-4,10,13,16,19-pentaaza-tricyclo[19.4.0.0*3,8*]pentacosa-1(21),3(8),4,6,22,24-hexaene-12,15,18-trione]"
6,16 µg/mL,"CNC(=O)CC[C@@H]1NCc2cccnc2Sc2c(Cl)cc(Cl)cc2CNC(=O)[C@H](Cc2c[nH]c3ccccc23)N(C)C(=O)[C@H](CCCCN)NC1=O [Example 210, 3-[(11S,14S,17S)-14-(4-Amino-butyl)-23,25-dichloro-17-(1H-indol-3-ylmethyl)-16-methyl-12,15,18-trioxo-2-thia-4,10,13,16,19-pentaaza-tricyclo[19.4.0.0*3,8*]pentacosa-1(25),3(8),4,6,21,23-hexaen-11-yl]-N-methyl-propionamide]"
7,16 µg/mL,"CN1C(=O)[C@H](CCCCN)NC(=O)[C@H](CCCN)NCc2cccnc2Sc2c(Cl)cc(-c3ccc(C#N)cc3)cc2CNC(=O)[C@@H]1Cc1c[nH]c2ccccc12 [Example 211, 4-[(11S,14S,17S)-14-(4-Amino-butyl)-11-(3-amino-propyl)-25-chloro-17-(1H-indol-3-ylmethyl)-16-methyl-12,15,18-trioxo-2-thia-4,10,13,16,19-pentaaza-tricyclo[19.4.0.0*3,8*]pentacosa-1(25),3(8),4,6,21,23-hexaen-23-yl]-benzonitrile]"
8,32 µg/mL,"Cc1cc(-c2ccc(Cl)c3c2CNC(=O)[C@H](Cc2c[nH]c4ccccc24)N(C)C(=O)[C@H](CCCCN)NC(=O)[C@H](CCCN)NCc2cccnc2S3)ccn1 [Example 212, (11S,14S,17S)-14-(4-Amino-butyl)-11-(3-amino-propyl)-25-chloro-17-(1H-indol-3-ylmethyl)-16-methyl-22-(2-methyl-pyridin-4-yl)-2-thia-4,10,13,16,19-pentaaza-tricyclo[19.4.0.0*3,8*]pentacosa-1(25),3(8),4,6,21,23-hexaene-12,15,18-trione]"
9,2 µg/mL,"CN1C(=O)[C@H](CCCCN)NC(=O)[C@H](CCCN)NCc2cccnc2Sc2c(Cl)cc(-c3ccncn3)cc2CNC(=O)[C@@H]1Cc1c[nH]c2ccccc12 [Example 213, (11S,14S,17S)-14-(4-Amino-butyl)-11-(3-amino-propyl)-25-chloro-17-(1H-indol-3-ylmethyl)-16-methyl-23-pyrimidin-4-yl-2-thia-4,10,13,16,19-pentaaza-tricyclo[19.4.0.0*3,8*]pentacosa-1(21),3,5,7,22,24-hexaene-12,15,18-trione]"
10,0.25 µg/mL,"CN1C(=O)[C@H](CCCCN)NC(=O)[C@H](CCCN)NCc2cccnc2Sc2c(Cl)cc(-c3ccc(S(N)(=O)=O)cc3)cc2CNC(=O)[C@@H]1Cc1c[nH]c2ccccc12 [Example 214, 4-[(11S,14S,17S)-14-(4-Amino-butyl)-11-(3-amino-propyl)-25-chloro-17-(1H-indol-3-ylmethyl)-16-methyl-12,15,18-trioxo-2-thia-4,10,13,16,19-pentaaza-tricyclo[19.4.0.0*3,8*]pentacosa-1(21),3,5,7,22,24-hexaen-23-yl]-benzenesulfonamide]"
11,0.25 µg/mL,"CN1C(=O)[C@H](CCCCN)NC(=O)[C@H](CCC(N)=O)NCc2cccnc2Sc2c(Cl)ccc(-c3cccnc3)c2CNC(=O)[C@@H]1Cc1c[nH]c2ccccc12 [Example 221, 3-[(11S,14S,17S)-14-(4-Amino-butyl)-25-chloro-17-(1H-indol-3-ylmethyl)-16-methyl-12,15,18-trioxo-22-pyridin-3-yl-2-thia-4,10,13,16,19-pentaaza-tricyclo[19.4.0.0*3,8*]pentacosa-1(25),3(8),4,6,21,23-hexaen-11-yl]-propionamide]"
12,0.12 µg/mL,"CN1C(=O)[C@H](CCCCN)NC(=O)[C@H](CCCN)NCc2cccnc2Sc2c(Cl)ccc(-c3ccnc(F)c3)c2CNC(=O)[C@@H]1Cc1c[nH]c2ccccc12 [Example 222, (11S,14S,17S)-14-(4-Amino-butyl)-11-(3-amino-propyl)-25-chloro-22-(2-fluoro-pyridin-4-yl)-17-(1H-indol-3-ylmethyl)-16-methyl-2-thia-4,10,13,16,19-pentaaza-tricyclo[19.4.0.0*3,8*]pentacosa-1(25),3(8),4,6,21,23hexaene-12,15,18-trione]"
13,1 µg/mL,"CN1C(=O)[C@H](CCCCN)NC(=O)[C@H](CCCN)NCc2cccnc2Sc2c(Cl)cc(-c3ccnc(N)c3)cc2CNC(=O)[C@@H]1Cc1c[nH]c2ccccc12 [Example 223, (11S,14S,17S)-14-(4-Amino-butyl)-11-(3-amino-propyl)-23-(2-amino-pyridin-4-yl)-25-chloro-17-(1H-indol-3-ylmethyl)-16-methyl-2-thia-4,10,13,16,19-pentaaza-tricyclo[19.4.0.0*3,8*]pentacosa-1(21),3,5,7,22,24-hexaene-12,15,18-trione]"
14,0.12 µg/mL,"CN1C(=O)[C@H](CCCCN)NC(=O)[C@H](CCCN)NCc2cccnc2Sc2c(Cl)ccc(-c3ccc(S(N)(=O)=O)cc3)c2CNC(=O)[C@@H]1Cc1c[nH]c2ccccc12 [Example 224, 4-[(11S,14S,17S)-14-(4-Amino-butyl)-11-(3-amino-propyl)-25-chloro-17-(1H-indol-3-ylmethyl)-16-methyl-12,15,18-trioxo-2-thia-4,10,13,16,19-pentaaza-tricyclo[19.4.0.0*3,8*]pentacosa-1(21),3,5,7,22,24-hexaen-22-yl]-benzenesulfonamide]"
15,0.12 µg/mL,"CN1C(=O)[C@H](CCCCN)NC(=O)[C@H](CCCN)NCc2cccnc2Sc2c(Cl)ccc(-c3ccc(S(C)(=O)=O)cc3)c2CNC(=O)[C@@H]1Cc1c[nH]c2ccccc12 [Example 225, (11S,14S,17S)-14-(4-Amino-butyl)-11-(3-amino-propyl)-25-chloro-17-(1H-indol-3-ylmethyl)-22-(4-methanesulfonyl-phenyl)-16-methyl-2-thia-4,10,13,16,19-pentaaza-tricyclo[19.4.0.0*3,8*]pentacosa-1(21),3,5,7,22,24-hexaene-12,15,18-trione]"
16,4 µg/mL,"CN1C(=O)[C@H](CCCCN)NC(=O)[C@H](CCCN)NCc2cccnc2Sc2c(Cl)cc(-n3ccnc3)cc2CNC(=O)[C@@H]1Cc1c[nH]c2ccccc12 [Example 227, (11S,14S,17S)-14-(4-Amino-butyl)-11-(3-amino-propyl)-25-chloro-23-imidazol-1-yl-17-(1H-indol-3-ylmethyl)-16-methyl-2-thia-4,10,13,16,19-pentaaza-tricyclo[19.4.0.0*3,8*]pentacosa-1(21),3,5,7,22,24-hexaene-12,15,18-trione]"
17,0.12 µg/mL,"CN1C(=O)[C@H](CCCCN)NC(=O)[C@H](CCCN)NCc2cccnc2Sc2c(Cl)ccc(-c3ccc(N)nc3)c2CNC(=O)[C@@H]1Cc1c[nH]c2ccccc12 [Example 228, (11S,14S,17S)-14-(4-Amino-butyl)-11-(3-amino-propyl)-22-(6-amino-pyridin-3-yl)-25-chloro-17-(1H-indol-3-ylmethyl)-16-methyl-2-thia-4,10,13,16,19-pentaaza-tricyclo[19.4.0.0*3,8*]pentacosa-1(21),3,5,7,22,24-hexaene-12,15,18-trione]"
18,1 µg/mL,"CN1C(=O)[C@H](CCCCN)NC(=O)[C@H](CCCN)NCc2cccnc2Sc2c(Cl)cc(-c3ccnc(C#N)c3)cc2CNC(=O)[C@@H]1Cc1c[nH]c2ccccc12 [Example 229, 4-[(11S,14S,17S)-14-(4-Amino-butyl)-11-(3-amino-propyl)-25-chloro-17-(1H-indol-3-ylmethyl)-16-methyl-12,15,18-trioxo-2-thia-4,10,13,16,19-pentaaza-tricyclo[19.4.0.0*3,8*]pentacosa-1(21),3,5,7,22,24-hexaen-23-yl]-pyridine-2-carbonitrile]"
